Experimental data reported in US12576253B2, “Drug delivery device with intravesical tolerability” (priority 2009, dated 2026).

Conditions: two six-day rabbits (4 mg device), spinal cord puncture at L7 just prior to euthanasia

lidocaine in cerebrospinal fluid: not detected
Compound: CCN(CC)CC(=O)Nc1c(C)cccc1C [lidocaine]
